Assay results from patent US7314720B2, “Method of diagnosing non-alcoholic steatohepatitis (nash) using molecular markers” (One Way Liver Genomic, S.L., priority 2002, dated 2008).

Tested on: PHB1
Assay: PHB1 level regulation in cultured rat hepatocytes (Western blot)
Assay type: cell-based
Details: for effect on PHB1 levels: 24 h incubation under standard conditions, 100 μM methionine or 4 mM AdoMet in culture media
Protocol: FIG. 5 illustrates PHB1 level regulation by AdoMet in cultured rat hepatocytes. PHB1 levels were measured in rat hepatocytes cultured for 12 or 24 hours in the presence or absence of 100 μM methionine, 4 mM AdoMet or 20 mM cycloleucine. Liver extracts (15 μg/lane) were analyzed by Western blotting using specific antibodies. To ensure equal loading, the membranes were stained with red Ponceau. A representative blot from three independent experiments is shown. Hepatocytes were isolated from male Wistar rats (200-250 g) by perfusion with collagenases, as previously described ([…]., et al., Gastroenterology, 1998, 114:364-371). Once isolated, hepatocytes were cultured according to García-Trevijano et al. […] Cell viability was measured by trypan blue exclusion, and no significant differences were observed between the controls and any of the different treatments performed in this study. Protein extraction and western blotting were performed as previously described ([…]., et al., Oncogene, 1995, 10:963-971; Ruiz, F., et al., Hepatology, 1998, 28:1051-1057). Briefly, equal amounts of protein (15 μg) were resolved in SDS/12.5% polyacrylamide gels. Proteins were electrophoretically transferred to nitrocellulose membranes. Membranes were probed with anti-MAT (Ruiz, F., et al., Hepatology, 1998, 28:1051-1057), anti-PHB1, anti-β ATPase and anti-COX I and II. A secondary antibody conjugated to horseradish peroxidase was used. Blots were developed by chemiluminescence (Dupont).

Structure (SMILES)	effect on PHB1 levels	decrease of PHB1 in the absence of methionine (exogenous addition of 4 mM AdoMet after 12 hours culture in the absence of methionine)	down-regulation of PHB1 (20 mM CL added to culture medium) [%]
C[S+](CC[C@H](N)C(=O)[O-])C[C@H]1O[C@@H](n2cnc3c(N)ncnc32)[C@H](O)[C@@H]1O (stereo partly shown) [AdoMet, S-adenosylmethionine]	no effect	prevented the decrease of PHB1	
NC1(C(=O)O)CCCC1 [CL, cycloleucine]			55
CSCC[C@H](N)C(=O)O [methionine]	no effect		
